Columns and labels:
[1] = method code SF-CR+AS, from DOI: 10.1016/0003-9861(68)90547-x, PMID: 5677592
[2] = method code SF-AQ, from DOI: 10.1016/0003-9861(68)90547-x, PMID: 5677592
[3] = method code SF-CR, from DOI: 10.1016/0003-9861(68)90547-x, PMID: 5677592

SMILES | logP [1] | other results
OC[C@H]1OC(OCc2ccccc2)[C@H](O)[C@@H](O)[C@@H]1O (stereo partly specified) | -0.7 | –
CC(C)(C)c1ccc(O[C@@H]2O[C@H](CO)[C@@H](O)[C@H](O)[C@H]2O)cc1 | 1.18 | –
OC[C@H]1O[C@@H](Oc2ccc(I)cc2)[C@H](O)[C@@H](O)[C@@H]1O | 0.75 | –
COc1ccc(O[C@@H]2O[C@H](CO)[C@@H](O)[C@H](O)[C@H]2O)cc1 | -0.73 | –
OC[C@H]1O[C@@H](Oc2ccc3ccccc3c2)[C@H](O)[C@@H](O)[C@@H]1O | 0.76 | –
Nc1ccc(O[C@@H]2O[C@H](CO)[C@@H](O)[C@H](O)[C@H]2O)cc1 | -2.67 | –
OCc1ccccc1O[C@@H]1O[C@H](CO)[C@@H](O)[C@H](O)[C@H]1O | -1.22 | –
OC[C@H]1O[C@@H](Oc2ccccc2I)[C@H](O)[C@@H](O)[C@@H]1O | 0.27 | –
CCc1cccc(O[C@@H]2O[C@H](CO)[C@@H](O)[C@H](O)[C@H]2O)c1 | 0.31 | –
CC(C)(C)c1cccc(O[C@@H]2O[C@H](CO)[C@@H](O)[C@H](O)[C@H]2O)c1 | 1.01 | –
Cc1cc(C)cc(O[C@@H]2O[C@H](CO)[C@@H](O)[C@H](O)[C@H]2O)c1 | 0.26 | –
OC[C@H]1O[C@@H](Oc2cccc(C(F)(F)F)c2)[C@H](O)[C@@H](O)[C@@H]1O | 0.49 | –
Cc1cccc(O[C@@H]2O[C@H](CO)[C@@H](O)[C@H](O)[C@H]2O)c1 | -0.2 | –
CC(C)c1cccc(O[C@@H]2O[C@H](CO)[C@H](O)[C@H](O)[C@H]2O)c1 | 0.65 | –
OC[C@H]1O[C@@H](Oc2ccc(O)cc2)[C@H](O)[C@@H](O)[C@@H]1O | -1.35 | –
Cc1ccc(C(C)C)c(O[C@@H]2O[C@H](CO)[C@@H](O)[C@H](O)[C@H]2O)c1 | 1.07 | –
O=[N+]([O-])c1ccccc1O[C@@H]1O[C@H](CO)[C@@H](O)[C@H](O)[C@H]1O | -0.78 | –
OC[C@H]1O[C@@H](Oc2ccccc2)[C@H](O)[C@@H](O)[C@@H]1O | -0.71 | –
COc1cccc(O[C@@H]2O[C@H](CO)[C@@H](O)[C@H](O)[C@H]2O)c1 | -0.52 | –
Nc1ccccc1O[C@@H]1O[C@H](CO)[C@@H](O)[C@H](O)[C@H]1O | -1.23 | –
OC[C@H]1O[C@@H](OC2CCCCC2)[C@H](O)[C@@H](O)[C@@H]1O | -0.63 | –
COc1ccccc1O[C@@H]1O[C@H](CO)[C@@H](O)[C@H](O)[C@H]1O | -1.04 | –
Cc1ccc(O[C@@H]2O[C@H](CO)[C@@H](O)[C@H](O)[C@H]2O)cc1 | -0.16 | –
OC[C@H]1O[C@@H](Oc2ccc(Cl)cc2)[C@H](O)[C@@H](O)[C@@H]1O | – | logP [2]: 0.26
CC(C)(C)c1cc(OC2OC(CO)C(O)C(O)C2O)cc(C(C)(C)C)c1 (stereo unspecified) | – | logP [3]: 2.73
Cc1ccccc1O[C@@H]1O[C@H](CO)C(O)[C@H](O)[C@H]1O (stereo in doubt) | -0.16 | –
